“Also recorded” adds a separate entry of the source.
Assays:
[1] = tested on: linearized plasmid pUC18 DNA; test: DNA intercalation assay; format: binding; conditions: up to 100 μM, compared to doxorubicin
Experimental: Since there are multiple modes of inhibition of ligase activity, we wanted to determine whether 8k inhibited ligation by direct inhibition alone or through other means as well such as DNA intercalation. DNA intercalation assay was performed as described by Furlan et al., Biotechnol. Lett. 2002, 24, 1807-1813. We incubated 100 ng of linearized plasmid pUC18 DNA with increasing concentrations (50, 100, 200 μM) of Doxorubicin (positive control), ampicillin (negative control), and 8k for 30 minutes at 37° C. Reaction products were resolved on a 1% agarose gel at 5.3 V/cm. Gel was visualized by ethidium bromide staining.

hLig1-DNA complex = hLig1-DNA complex (Homo sapiens, UniProt P18858); test: Electrophoretic mobility shift assay (EMSA); format: binding; conditions: 25, 50 and 100 μM; hLig1 10 pmol, DNA 1 pmol
Chain of hLig1-DNA complex (P18858 whole entry, one chain of several): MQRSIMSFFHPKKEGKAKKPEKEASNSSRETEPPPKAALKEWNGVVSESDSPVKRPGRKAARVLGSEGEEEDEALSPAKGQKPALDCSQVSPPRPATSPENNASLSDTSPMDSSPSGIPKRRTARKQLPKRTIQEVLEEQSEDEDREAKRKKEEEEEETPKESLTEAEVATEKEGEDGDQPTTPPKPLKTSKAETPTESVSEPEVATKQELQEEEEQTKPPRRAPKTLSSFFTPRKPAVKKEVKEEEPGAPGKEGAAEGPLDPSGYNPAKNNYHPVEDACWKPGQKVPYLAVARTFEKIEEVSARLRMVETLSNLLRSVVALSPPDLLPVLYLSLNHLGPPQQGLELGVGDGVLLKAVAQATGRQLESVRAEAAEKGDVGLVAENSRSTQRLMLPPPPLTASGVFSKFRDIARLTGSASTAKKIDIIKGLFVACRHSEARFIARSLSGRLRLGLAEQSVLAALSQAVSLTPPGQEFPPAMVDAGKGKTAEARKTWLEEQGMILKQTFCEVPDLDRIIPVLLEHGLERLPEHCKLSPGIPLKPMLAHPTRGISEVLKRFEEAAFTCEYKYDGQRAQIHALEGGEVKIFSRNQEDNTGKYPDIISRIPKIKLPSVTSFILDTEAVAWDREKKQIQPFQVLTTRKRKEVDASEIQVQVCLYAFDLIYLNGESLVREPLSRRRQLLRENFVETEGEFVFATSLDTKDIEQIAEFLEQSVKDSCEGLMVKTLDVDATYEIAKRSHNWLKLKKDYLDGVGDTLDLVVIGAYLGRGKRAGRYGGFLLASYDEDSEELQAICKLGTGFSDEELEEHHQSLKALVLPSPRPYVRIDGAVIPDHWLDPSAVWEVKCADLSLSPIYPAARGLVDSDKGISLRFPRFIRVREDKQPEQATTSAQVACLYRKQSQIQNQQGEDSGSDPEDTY
Experimental: EMSA was performed as described in Xi Chen et. al, Cancer Res 2008; 68(9):3169-3177 with some modifications, for the interaction study between 8k and hLig1. Of the three oligos used to construct the DNA substrate, one was a 5′-FAM labelled 27-mer oligo with a dideoxy modified 3′ end. Other two oligos of 25-mer and 52-mer were used. These oligos were annealed to obtain a non-ligatable nicked DNA substrate which the ligase enzyme can recognize and bind to, but cannot ligate or release from it. […] Lanes 3-5 (FIG. 6A) contain increasing concentrations of the inhibitor. A shift in signal is seen is lanes 3-5. This shift in the ligase-DNA complex can occur only if the inhibitor binds to the complex of hLig1+DNA and increases the size of the complex. If inhibitor binds to ligase alone, then we would expect fewer signals in lanes 3-5. But since we see an increase in intensity of signal as well as a super-shift in the signal, we can reliably say that the inhibitor binds to the DNA-ligase complex and not separately to either DNA or ligase.

caspase-3 in HepG2 cells = test: Caspase-3 colorimetric activation assay; format: cell-based, human; conditions: HepG2, 5 and 10 μM, 24 h
Experimental: The activity of caspase-3 was determined using a caspase-3 colorimetric assay kit (Sigma Aldrich) according to the manufacturer's protocol. Briefly, HepG2 cells (1×10^6 cells/well) were treated with 5 and 10 μM of 8i and 8k for 24 h. The cells were harvested and lysed by addition of lysis buffer. Cell lysates were mixed with colorimetric substrate (Ac-DEVD-pNA) and incubated at 37° C. in the dark for 4 h. The absorbance was measured at 405 nm in an ELISA reader. Caspase-3 activity was expressed as the change of the activity compared to the control (FIG. 3).

[2] = tested on: HepG2, NH/3T3, PC-3, MCF-7 cell lines; test: MTT assay, summary over the cell line panel; format: cell-based; conditions: across tested cell lines
Experimental: The human cancer cell lines e.g. HepG2 (hepatocellular carcinoma, ATCC® HB-8065™), PC-3 (human prostate cancer cells, ATCC® CRL-1435™), MCF-7 (breast adenocarcinoma, ATCC® […]), and mouse embryo fibroblasts (NIH/3T3, ATCC® CRL-1658™), used in the present study were obtained from the ATCC (American Type Culture Collection, USA and maintained in RPMI 1640 (Roswell Park Memorial Institute, Merck) with 10% FBS (Merck), supplemented with 1% antibiotic and antimycotic solution (Gibco, USA) at 37° C. in a humidified incubator with 5% CO2. All stock solutions of the compounds were prepared in cell culture grade DMSO (dimethyl sulfoxide) and stored at −20° C. Compounds were diluted in culture media prior to use in experiments. Annexin V-FITC apoptosis detection kits were purchased from Calbiochem. MTT dye was procured from Sigma-Aldrich. All the flow cytometry experiments were performed using a FACScan (Becton Dickinson, Mountain View, Calif.) flow cytometer, equipped with a single 488 nm argon laser.
Cell viability was assessed by MTT assay, which is based on the reduction of MTT by mitochondrial dehydrogenases of viable cells to form a purple formazan product. Briefly, cells (5-6×10^3/well) were plated in 96 well plates. After incubating overnight, the cells were treated with […] different concentrations (100, 50, 20, 10, 5, 2.5, 1.25 μM) in triplicates with the cationic lipidated cordiarimide and intermediates for 48 h. Subsequently, 10 μL of MTT (10 mg/mL) was added to each well and incubated for 3 h. The MTT formazan formed by viable cells was dissolved in 100 μL of DMSO and shaken for 10 min. The absorbance was measured on an ELISA reader. Each test was repeated at least three times. The concentration of the compound which gives the 50% growth inhibition value corresponding to IC50, was calculated using GraphPad prism 5 software. In the present invention we have screened 26 lipidated cordiarimides and the results are described in table 1.

HepG2 cells = test: Cell cycle analysis, PI staining by flow cytometry; format: cell-based, human; conditions: HepG2, 24 h, 5, 10, and 20 mM as printed
Experimental: For cell cycle distribution studies after treatment with different molar concentrations of 8i and 8k, HepG2 cells were fixed overnight in 70% ethanol, rehydrated in PBS with ribonuclease A (100 μg/ml) and Triton-X (1%) for 30 min at room temperature then PI (at 50 μg/ml) was added and incubated in the dark for 30 min and analyzed with a flow cytometer. Experiments were repeated two times independently.

CCCCCCCCCCCC[N+](C)(CCCCCCCCCCCC)CC(=O)NC1CCC(=O)N(CC(=O)c2ccccc2)C1=O (centres unmarked) [Compound 8k, {[2,6-Dioxo-1-(2-oxo-2-phenyl-ethyl)-piperidin-3-ylcarbamoyl]-methyl}-Didodecyl-methyl-ammonium iodide]
DNA intercalation [1]: no appreciable intercalation | mode of inhibition by EMSA (hLig1-DNA complex): un-competitive mode of inhibition | caspase-3 activation (caspase-3 in HepG2 cells): activated the caspase-3 in HepG2 cells dose dependently; also recorded: activated the casepase-3 in HepG2 cells dose dependently | antiproliferative / anticancer activity (in words) [2]: selective anti-proliferative activity at lower concentrations | effect on cell cycle progression (HepG2 cells): significant accumulation of cells in G0/G1 phase; also recorded: blocked the cell cycle in G0/G1 phase

— US10266564B2, “Cationic lipid cordiarimide hybrid compounds and a process for preparation thereof” (COUNCIL OF SCIENTIFIC & INDUSTRIAL RESEARCH, priority 2014, dated 2019)
